Several values for one entry are separate records, joined by “and”; a condition that tells them apart may be missing. Equal entries are not always repeated. Where two headings read alike, the source gives them in different places.
What was measured:
Experiment in all cases: MIC values / microbial growth in Sabouraud maltose broth and synergistic index (Kull)
Format in all cases: cell-based
[1] = system: Penicillium funiculosum DSM 12637; settings: employed alone, incubation 96 hours at 25° C.; for MIC: Talaromyces funiculosus, DSM12637
Experimental: (§1) In addition to the biocide component and water, the aqueous mixtures also comprised a nutrient medium, viz. a Sabouraud maltose broth (commercial product, Merck No. 10393). The cell density was 10^6 cells/ml. The incubation time was 96 hours at 25° C. Each sample was incubated in a shaker-incubator at 120 rpm.
(§2) The synergistic index calculated by the method of F. C. Kull et al., Applied Microbiology, vol. 9 (1961), p. 538. Here, the synergistic index is calculated using the following formula: Synergistic index SI=Qa/QA+Qb/QB.
(§3) If the synergistic index has a value of above 1, this means that antagonism is present. If the synergistic index assumes a value of 1, this means that an additive effect of the two biocides exists. If the synergistic index assumes a value of less than 1, this means that synergism of the two biocides exists.
Again, the experimental batches contained a Sabouraud maltose broth as the nutrient medium. The cell density was 10^6 cells/ml. The incubation time was 96 hours at 25° C. Each sample was incubated in a shaker-incubator at 120 rpm.

[2] = system: Aspergillus niger DSM 1957; settings: for Synergistic index Qa/QA + Qb/QB: single active ingredient alone; for MIC: Aspergillus niger, DSM1957
Experimental: as §1, §2, §3
(§4) Again, the experimental batches contained a Sabouraud maltose broth as the nutrient medium. The cell density was 10^6 cells/ml. The incubation time was 72 hours at 25° C. Each sample was incubated in a shaker-incubator at 120 rpm.

[3] = system: Penicillium funiculosum IMI 211742; settings: employed alone, incubation 72 hours at 25° C.; for MIC: Talaromyces funiculosus, IMI211742
Experimental: as §1, §2, §3, §4

Row | MIC ([2]; DCOIT alone (100.0 % by weight), 72 h/25° C., read-out: MIC at DCOIT concentration Qb) | MIC ([2]; employed alone, incubation 72 hours at 25° C., read-out: MIC value) | Compound | MIC value [1] | MIC at ZnPy concentration Qa ([2]; ZnPy alone (100.0 % by weight), 72 h/25° C.) | MIC value ([2]; employed alone, incubation 72 hours at 25° C.) | Synergistic index Qa/QA + Qb/QB ([2]; 72 h/25° C.) | MIC value [3] | MIC [1] | MIC [3]
1 |  |  | CCCCCCCCn1sccc1=O [OIT, 2-n-octylisothiazolin-3-one] | 0.5 ppm |  |  |  |  |  | 
2 |  |  | zinc pyrithione [ZnPy] | 2 ppm | 17.5 ppm | 17.5 ppm | 1.00 | 1 ppm and 0.75 ppm |  | 
3 | 0.75 µg/mL | 0.75 µg/mL | CCCCCCCCn1sc(Cl)c(Cl)c1=O [DCOIT, 4,5-dichloro-2-n-octyl-4-isothiazolin-3-one] |  |  |  | 1.00 |  | 2 µg/mL | 1 µg/mL
4 |  |  | CCCCNC(=O)OCC#CI [IPBC, 3-iodo-2-propynyl N-butylcarbamate] |  |  |  |  |  | 2 µg/mL | 0.75 µg/mL

Reference: patent publication US6846777B2, “Synergistic biocidal composition” (Thor GmbH, priority 2000, dated 2005)
